Data on four molecules can be found in ChEMBL document CHEMBL1201862, “PubChem BioAssay data set” (2004).

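96-well plates; 48 h exposure; 5 concentrations. Endpoints by linear interpolation between flanking doses. Not reached: highest tested concentration assigned. At the GI50, growth is halved.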 The source made the active and inactive calls. Cut-off read from the data, not from the text of the source: active = GI50 up to about 1.1 µM and inactive = higher.

Holding throughout (assay): growth of human tumour cells (NCI), 48 h
In experiment [1] the test system is OVCAR-4.
The subject of experiment [2] is MDA-MB-231.
The subject of experiment [3] is SF-295.
The subject of experiment [4] is NCI-H226.
The subject of experiment [5] is MOLT-4.
Experiment [6] deals with CCRF-CEM.
For experiment [7], the system named is RPMI-8226.
Experiment [8] deals with U-251.
The test system of experiment [9] is SN12C.
The subject of experiment [10] is UACC-257.
Experiment [11] has as its system 786-0.
Experiment [12] deals with COLO 205.
Experiment [13] has as its system SNB-19.
The subject of experiment [14] is ACHN.
Experiment [15] deals with BT-549.
Experiment [16] has as its system NCI/ADR-RES.
Experiment [17] relates to Hs-578T.
The subject of experiment [18] is IGROV-1.
For experiment [19], the system named is SK-MEL-5.
Experiment [20] concerns CAKI-1.

For `CC(=O)Oc1ccc(-c2cc3ccccc3oc2=O)cc1`, the GI50 in experiment [1] is > 100 µM (inactive); in experiment [2], > 100 µM (inactive); in [3], 43.9 µM (inactive); in experiment [4], > 100 µM (inactive); in [5] it was 45.6 µM (inactive); in [6], > 100 µM (inactive). For the same molecule, the GI50 in experiment [7], in experiment [8], in experiment [9], in [10], in [11] and in experiment [12] was > 100 µM (inactive) each time. Besides, the GI50 in [13], in experiment [14], in [15], in experiment [16] and in experiment [17] was > 100 µM (inactive) each time.

Regarding `Cc1c2ccccc2nc2[nH]c3ccncc3c12`, the GI50 was 45.6 µM (inactive) in experiment [1]; 78.5 µM (inactive) in experiment [2]; 31.6 µM (inactive) in experiment [3]; 29.5 µM (inactive) in experiment [18]; > 100 µM (inactive) in experiment [5]; 0.957 µM (active) in [6]. Moreover, the GI50 in experiment [7] is 21 µM (inactive); in experiment [8], 30.1 µM (inactive); in experiment [19], 29.4 µM (inactive); in experiment [9], 13.1 µM (inactive); in experiment [20], 25.2 µM (inactive); in experiment [10], 52.1 µM (inactive). Also, the GI50 in experiment [11] was 16.3 µM (inactive); in experiment [12], 40.4 µM (inactive); in [13], 36.1 µM (inactive); in experiment [14], 18.7 µM (inactive); in [15], 40.6 µM (inactive); in [16] it was 23.9 µM (inactive). The GI50 in experiment [17] is 50.7 µM (inactive).

On to `O=C(/N=N/c1ccc(Br)cc1)NNc1ccc(Br)cc1`, for which the GI50 is 21.2 µM (inactive) in experiment [2]; 28.1 µM (inactive) in [3]; 22.1 µM (inactive) in experiment [18]; 20.5 µM (inactive) in [4]; 11.8 µM (inactive) in [5]; 0.132 µM (active) in experiment [6]. Also, the GI50 is 23.8 µM (inactive) in experiment [7]; 17.5 µM (inactive) in experiment [8]; 13.9 µM (inactive) in experiment [19]; 23.7 µM (inactive) in experiment [20]; 23 µM (inactive) in experiment [12]; 39.8 µM (inactive) in [13]. The GI50 in experiment [15] was > 10 µM (inactive); in [16], 20 µM (inactive); in [17], > 10 µM (inactive).

For `O=C(O)CC(Cc1ccc2c(c1)OCO2)C(=O)O` (stereo not given), the GI50 in experiment [1], in experiment [2], in experiment [3], in experiment [18], in [4] and in [5] was > 100 µM (inactive) each time. Moreover, the GI50 in [6] is 56.2 µM (inactive); in experiment [7], > 100 µM (inactive); in experiment [8], > 100 µM (inactive); in experiment [19] it was > 100 µM (inactive); in experiment [9], > 100 µM (inactive); in experiment [10], > 100 µM (inactive). Further, the GI50 in experiment [11], in [12], in [13], in [14], in experiment [15] and in [16] was > 100 µM (inactive) throughout. In addition, in experiment [17], the GI50 is > 100 µM (inactive).
